Laboratory results: PubChem BioAssay AID2060906 (Molecular Pharmacology Branch, DTP, NCI, 2025)
pIC50: −log10 of the molar value. Each block holds one compound with its values, some of them ahead of it.

Test system: 485176-168-R4-J1-PDC complex spheroid growth
Experiment: Anticancer human tumor 485176-168-R4-J1-PDC patient-derived pancreatic adenocarcinoma cell line growth inhibition [RAS]
Conditions: for pIC50: curve of first compound; for viability, T/C: stronger effect = lower value
Source text: RAS pathway inhibitors in Combinations in Complex Spheroids
A high-throughput screen of multi-cell type tumor spheroids was designed to identify active combinations of RAS pathway inhibitors and targeted small molecules. Complex spheroids include a stromal component modeled by human endothelial cells (HUVEC) and fibroblasts modeled by human mesenchymal stem cells (MSCs). The concentration ranges selected for each drug and investigational agent were based upon clinically achievable concentrations if the clinical Cmax of the agent was known.
Compounds. The drugs and investigational agents: abemaciclib (NSC768073), cobimetinib (NSC768068), divarasib (GDC6063, NSC841802), docetaxel (NSC628503), GDC-1971 (RLY-1971, NSC841576), gemcitabine (NSC613327), inavolisib (NSC800729), ipatasertib (NSC767898), KB-0742 (NSC834161), MRTX-1133 (NSC836407), osimertinib (NSC779217), RMC-4630 (NSC839698), RMC-6236 (NSC851965), RMC-6291 (NSC852671), Ro-3306 (NSC812927), sapanisertib (NSC764658), SN-38 (NSC673596), staurosporine (NSC755774), SY5609 (NSC837396), and tovorafenib (DAY101, NSC766906), were obtained from the National Cancer Institute (NCI) Developmental Therapeutics Program Chemical Repository. The FDA-approved anticancer drug set is available from the NCI Developmental Therapeutics Program. […] The stock solutions were prepared in dimethyl sulfoxide (DMSO, Sigma-Aldrich, St. Louis, MO, cat. D2650) at 800-fold the tested concentration and stored at -70 degrees C prior to their use. All drugs and investigational agents were tested over a range starting from a high concentration at or near the clinical Cmax and decreasing in half-log increments. If the clinical Cmax for an agent had not been determined, the highest concentration tested was 10 microM.
Cell Culture. All cells were maintained in an incubator at 37 degrees C and 5% CO2 with 95% humidity. The PDC lines were cultured according to standard operating procedures established by the NCI PDMR. All PDCs were thawed and cultured in Matrigel-coated flasks prepared with a working solution of 1X Ham's F-12 nutrient mix, without supplementation (Invitrogen, Waltham, MA, cat. 11765054), 100 U/mL penicillin-streptomycin (Invitrogen, cat. 15140122), and 2.5% Matrigel (Corning Inc., Corning, NY, cat. 354248) for the first three passages. The 362531-283-R-J2-PDC and 782815-120-R-J1-PDC lines were cultured in 6C/Colon 1B media, which includes advanced DMEM/F-12 (Thermo Fisher Scientific, cat. 12634028), 10 mM HEPES (Thermo Fisher Scientific, cat. 15630080), 1X GlutaMAX supplement (Thermo Fisher Scientific, cat. 35050061), 0.1 mg/mL primocin (InvivoGen, San Diego, CA, cat. ant-pm-2), 10% defined fetal bovine serum, heat inactivated (HyClone Laboratories Inc., Logan, UT, cat. SH30070.03HI), 50% L-WRN conditioned media (ATCC, cat. CRL-3276), 1.25 mM N-Acetyl-L-cysteine (Sigma-Aldrich, cat. A9165), 10 mM nicotinamide (Sigma-Aldrich, cat. N0636), 1X B-27 supplement (Thermo Fisher Scientific, cat. 17504044), 1X N-2 supplement (Thermo Fisher Scientific, cat. 17502048), 50 ng/mL human EGF (Thermo Fisher Scientific, cat. PHG0311), and 10 microM Y-27632 dihydrochloride (Tocris Bioscience, cat. 1254). The K12877-001-R-J1-PDC line was cultured in 6I media, which includes all 6C/Colon 1B media plus 10 ng/mL human FGF-10 (PeproTech, cat. 100-26), 1 ng/mL human FGF-2 (PeproTech, cat. 100-18B), 1 µM prostaglandin E2 (Tocris Bioscience, cat. 2296), […] hydrocortisone (Sigma-Aldrich, cat. H4001), and […] bovine insulin (Sigma-Aldrich, cat. I6634). The K86415-001-R-J1-PDC line was cultured in 6D media, which includes all 6C/Colon 1B media components minus the L-WRN conditioned media. The 485176-168-R4-J1-PDC was cultured in PANC media, which includes all 6C/Colon 1B media plus 100 ng/mL human FGF-10 (PeproTech, cat. 100-26), 500 nM SB-431542 (Selleckchem, cat. S1067), and 10 nM gastrin (Tocris Bioscience, cat. 3006). […]

[1] = second compound 0.0316 µM, first compound 0.0316 µM
[2] = second compound 0.0316 µM, first compound 0.1 µM
[3] = second compound 0.0316 µM, first compound 0.316 µM
[4] = second compound 0.0316 µM, first compound 1 µM
[5] = second compound 0.0316 µM, first compound 3.16 µM
[6] = second compound 0.0316 µM, first compound 10 µM
[7] = second compound 0.1 µM, first compound 0.0316 µM
[8] = second compound 0.1 µM, first compound 0.1 µM
[9] = second compound 0.1 µM, first compound 0.316 µM
[10] = second compound 0.1 µM, first compound 1 µM
[11] = second compound 0.1 µM, first compound 3.16 µM
[12] = second compound 0.1 µM, first compound 10 µM
[13] = second compound 0.316 µM, first compound 0.0316 µM
[14] = second compound 0.316 µM, first compound 0.1 µM
[15] = second compound 0.316 µM, first compound 0.316 µM
[16] = second compound 0.316 µM, first compound 1 µM
[17] = second compound 0.316 µM, first compound 3.16 µM
[18] = second compound 0.316 µM, first compound 10 µM
[19] = second compound 1 µM, first compound 0.0316 µM
[20] = second compound 1 µM, first compound 0.1 µM
[21] = second compound 1 µM, first compound 0.316 µM
[22] = second compound 1 µM, first compound 1 µM
[23] = second compound 1 µM, first compound 3.16 µM
[24] = second compound 1 µM, first compound 10 µM
[25] = second compound 3.16 µM, first compound 0.0316 µM
[26] = second compound 3.16 µM, first compound 0.1 µM
[27] = second compound 3.16 µM, first compound 0.316 µM
[28] = second compound 3.16 µM, first compound 1 µM
[29] = second compound 3.16 µM, first compound 3.16 µM
[30] = second compound 3.16 µM, first compound 10 µM
[31] = second compound 10 µM, first compound 0.0316 µM
[32] = second compound 10 µM, first compound 0.1 µM
[33] = second compound 10 µM, first compound 0.316 µM
[34] = second compound 10 µM, first compound 1 µM
[35] = second compound 10 µM, first compound 3.16 µM
[36] = second compound 10 µM, first compound 10 µM
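Note: spheroids exposed to compounds for seven days before readout.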
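Throughout, for viability, T/C: luminescence viability expressed relative to DMSO vehicle wells set as 100%.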

- pIC50 (second compound 0.0316 µM): 5.60
- pIC50 (second compound 0.1 µM): 5.53
- pIC50 (second compound 0.316 µM): 5.44
- pIC50 (second compound 1 µM): 5.68
- pIC50 (second compound 3.16 µM): 5.66
- pIC50 (second compound 10 µM): 5.54
SMILES: CC1(O)CCCC1n1c(=O)c(C(F)F)cc2cnc(NC3CCN(S(C)(=O)=O)CC3)nc21 (stereo unspecified) + C#Cc1c(F)ccc2cc(O)cc(-c3ncc4c(N5CC6CCC(C5)N6)nc(OCC56CCCN5CC(F)C6)nc4c3F)c12
- viability, T/C [1]: 95%
- viability, T/C [2]: 66.2%
- viability, T/C [3]: 60.5%
- viability, T/C [4]: 79.6%
- viability, T/C [5]: 44.1%
- viability, T/C [6]: 2.88%
- viability, T/C [7]: 78.7%
- viability, T/C [8]: 76.5%
- viability, T/C [9]: 68.7%
- viability, T/C [10]: 61.2%
- viability, T/C [11]: 53.6%
- viability, T/C [12]: 2.44%
- viability, T/C [13]: 89.9%
- viability, T/C [14]: 72.2%
- viability, T/C [15]: 68.3%
- viability, T/C [16]: 66.9%
- viability, T/C [17]: 60.4%
- viability, T/C [18]: 3.62%
- viability, T/C [19]: 91.5%
- viability, T/C [20]: 81.4%
- viability, T/C [21]: 66.8%
- viability, T/C [22]: 64.7%
- viability, T/C [23]: 47.2%
- viability, T/C [24]: 1.8%
- viability, T/C [25]: 104%
- viability, T/C [26]: 84.9%
- viability, T/C [27]: 66.2%
- viability, T/C [28]: 62.2%
- viability, T/C [29]: 58%
- viability, T/C [30]: 2.91%
- viability, T/C [31]: 89.1%
- viability, T/C [32]: 70.8%
- viability, T/C [33]: 82.7%
- viability, T/C [34]: 57.1%
- viability, T/C [35]: 55.9%
- viability, T/C [36]: 2.88%

- pIC50 (second compound 0.0316 µM): < 6.00
- pIC50 (second compound 0.1 µM): < 6.00
- pIC50 (second compound 0.316 µM): < 6.00
- pIC50 (second compound 1 µM): < 6.00
- pIC50 (second compound 3.16 µM): < 6.00
- pIC50 (second compound 10 µM): < 6.00
SMILES: CCN1CCN(Cc2ccc(Nc3ncc(F)c(-c4cc(F)c5nc(C)n(C(C)C)c5c4)n3)nc2)CC1 + C#Cc1c(F)ccc2cc(O)cc(-c3ncc4c(N5CC6CCC(C5)N6)nc(OCC56CCCN5CC(F)C6)nc4c3F)c12
- viability, T/C (second compound 0.0316 µM, first compound 0.00316 µM): 91.1%
- viability, T/C (second compound 0.0316 µM, first compound 0.01 µM): 83.4%
- viability, T/C [1]: 101%
- viability, T/C [2]: 100%
- viability, T/C [3]: 73.9%
- viability, T/C [4]: 64.9%
- viability, T/C (second compound 0.1 µM, first compound 0.00316 µM): 117%
- viability, T/C (second compound 0.1 µM, first compound 0.01 µM): 109%
- viability, T/C [7]: 79.7%
- viability, T/C [8]: 85.1%
- viability, T/C [9]: 78.8%
- viability, T/C [10]: 55.4%
- viability, T/C (second compound 0.316 µM, first compound 0.00316 µM): 97.1%
- viability, T/C (second compound 0.316 µM, first compound 0.01 µM): 95.6%
- viability, T/C [13]: 90.7%
- viability, T/C [14]: 104%
- viability, T/C [15]: 84.3%
- viability, T/C [16]: 63.9%
- viability, T/C (second compound 1 µM, first compound 0.00316 µM): 96.8%
- viability, T/C (second compound 1 µM, first compound 0.01 µM): 101%
- viability, T/C [19]: 101%
- viability, T/C [20]: 86.8%
- viability, T/C [21]: 72%
- viability, T/C [22]: 70.1%
- viability, T/C (second compound 3.16 µM, first compound 0.00316 µM): 110%
- viability, T/C (second compound 3.16 µM, first compound 0.01 µM): 92.8%
- viability, T/C [25]: 81.5%
- viability, T/C [26]: 92.8%
- viability, T/C [27]: 77.5%
- viability, T/C [28]: 61.3%
- viability, T/C (second compound 10 µM, first compound 0.00316 µM): 103%
- viability, T/C (second compound 10 µM, first compound 0.01 µM): 95.5%
- viability, T/C [31]: 84.4%
- viability, T/C [32]: 79.6%
- viability, T/C [33]: 96.6%
- viability, T/C [34]: 61.6%

- pIC50 (second compound 0.0316 µM): < 5.00
- pIC50 (second compound 0.1 µM): < 5.00
- pIC50 (second compound 0.316 µM): < 5.00
- pIC50 (second compound 1 µM): < 5.00
- pIC50 (second compound 3.16 µM): < 5.00
- pIC50 (second compound 10 µM): < 5.00
SMILES: C[C@@H](NC(=O)c1ncnc(N)c1Cl)c1ncc(C(=O)Nc2cc(C(F)(F)F)c(Cl)cn2)s1 + C#Cc1c(F)ccc2cc(O)cc(-c3ncc4c(N5CC6CCC(C5)N6)nc(OCC56CCCN5CC(F)C6)nc4c3F)c12
- viability, T/C [1]: 123%
- viability, T/C [2]: 101%
- viability, T/C [3]: 102%
- viability, T/C [4]: 78.9%
- viability, T/C [5]: 87.8%
- viability, T/C [6]: 58.8%
- viability, T/C [7]: 106%
- viability, T/C [8]: 100%
- viability, T/C [9]: 86.7%
- viability, T/C [10]: 81.7%
- viability, T/C [11]: 73.5%
- viability, T/C [12]: 62.1%
- viability, T/C [13]: 97.2%
- viability, T/C [14]: 86.3%
- viability, T/C [15]: 73%
- viability, T/C [16]: 84.1%
- viability, T/C [17]: 69.9%
- viability, T/C [18]: 63%
- viability, T/C [19]: 84.8%
- viability, T/C [20]: 81.8%
- viability, T/C [21]: 101%
- viability, T/C [22]: 75.3%
- viability, T/C [23]: 74.7%
- viability, T/C [24]: 57.2%
- viability, T/C [25]: 103%
- viability, T/C [26]: 96.8%
- viability, T/C [27]: 94.7%
- viability, T/C [28]: 80.5%
- viability, T/C [29]: 69.8%
- viability, T/C [30]: 63%
- viability, T/C [31]: 97.6%
- viability, T/C [32]: 87%
- viability, T/C [33]: 83.6%
- viability, T/C [34]: 80.3%
- viability, T/C [35]: 75%
- viability, T/C [36]: 58.1%
